Data as given in publication PMC7897442, “Mobility shift-based electrophoresis coupled with fluorescent detection enables real-time enzyme analysis of carbohydrate sulfatase activity” (Biochemical Journal, 2021).

Columns and labels:
[1] = Stability of labelled substrate in CE assay without enzyme; type: physicochemical; settings: absence of enzyme, CE assay conditions
From the text: 6S-N-acetyl-D-glucosamine was labelled at its reducing end with BODIPY which has a maximal emission absorbance of ∼503 nm, which can be detected by the EZ Reader II platform via LED-induced fluorescence. Non-radioactive microfluidic mobility shift carbohydrate sulfation assays were optimised in solution with a 12-sipper chip coated with CR8 reagent and performed using a PerkinElmer EZ Reader II system employing EDTA-based separation buffer and real-time kinetic evaluation of substrate desulfation. Pressure and voltage settings were adjusted manually (1.8 psi, upstream voltage: 2250 V, downstream voltage: 500 V) to afford optimal separation in the reaction mixture of the sulfated substrate and unsulfated glycan product, with a sample (sip) time of 0.2 s, and total assay times appropriate for the experiment. Individual de-sulfation assays were carried out at 28°C and were pre-assembled in a 384-well plate in a volume of 80 μl in the presence of substrate concentrations between 0.5 and 20 μM with 100 mM Bis-Tris-Propane (BTP) or Tris, dependent on the pH required, and 150 mM NaCl, 0.02% (v/v) Brij-35 and 5 mM CaCl2. The amount of de-sulfation was directly calculated in real-time using EZ Reader II software by measuring the sulfated carbohydrate : unsulfated carbohydrate ratio at each time point during the assay. […]

[2] = parameters: method as in PMID 36876452; settings: pH range; cited from earlier work

| Structure (SMILES) | amount of unsulfated substrate over the course of the reaction (stability) [1] | stability over a variety of pH values [2] |
| --- | --- | --- |
| CC(=O)N[C@@H]1[C@@H](O)[C@H](O)[C@@H](COS(=O)(=O)O)O[C@H]1NNC(=O)CCC1=[N+]2C(=Cc3c(C)cc(C)n3[B-]2(F)F)C=C1 [6S-GlcNAc-BODIPY] | remained constant |  |
| Cc1cc(C)n2c1C=C1C=CC(CCC(=O)NN)=[N+]1[B-]2(F)F [BODIPY-FL hydrazide, 4,4-difluoro-5,7-dimethyl-4-bora-3a,4a-diaza-s-indacene-3-propionic acid, hydrazide] |  | 3–12 |
